From US11338040B2, “Immunomodulatory compounds” (Leidos, Inc., priority 2020, dated 2022) come the findings set out here.

Data set [1] can be described thus: Precipitation on dilution in assay buffer. The note with it: 100 μM final in assay buffer. Format: physicochemical. On the procedure: FIG. 1 is a graph reporting the results of a TR-FRET assay testing the ability of peptide conjugates and individual peptides to affect the interaction between LAG3 and MHC-II. * indicates precipitation when diluted in assay buffer at 1 mM (100 μM final).

Data set [2] deals with T1, PD1 (Homo sapiens, UniProt Q15116).
T1 construct: expressed in transfected cells; host or cells: Jurkat cells (PD1-EFC and SHP1-EFC) co-cultured with PDL1-presenting U2OS cells
T1 sequence (Q15116 25-288): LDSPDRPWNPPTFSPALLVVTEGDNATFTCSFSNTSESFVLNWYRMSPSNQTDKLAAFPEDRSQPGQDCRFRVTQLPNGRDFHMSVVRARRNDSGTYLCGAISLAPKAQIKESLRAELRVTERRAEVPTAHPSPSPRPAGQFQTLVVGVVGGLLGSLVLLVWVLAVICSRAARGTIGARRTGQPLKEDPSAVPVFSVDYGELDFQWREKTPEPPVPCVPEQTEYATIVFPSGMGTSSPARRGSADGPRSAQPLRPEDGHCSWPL
Put plainly: PD1/PDL1 cell reporter assay (PathHunter, Jurkat PD1/SHP1 EFC cells co-incubated with PDL1-presenting U2OS cells). Format: cell-based. Particulars: peptide conjugates at 3.6 μM, 10.8 μM, 32.5 μM in triplicate; FIG. 10. On the procedure:
Jurkat cells expressing PD1 and SHP1 proteins, each fused to a fragment of enzyme fragment complementation (EFC) system, were co-incubated with PDL1-presenting U2OS cells. […] Cells in co-culture were incubated at room temperature (RT) for 2 h (PD1 assay). The assay signal was generated using the PathHunter Bioassay Detection kit. Microplates were read following signal generation using a PerkinElmer ENVISION™ instrument for chemiluminescent signal detection. Inhibitory peptides or antibodies added to the culture result in reduction of light signal. The degree of inhibition was calculated using the following formula: Percent inhibition=100%×[1−(mean RLU of test sample−mean RLU of vehicle control)/mean RLU of EC80 control−mean RLU of vehicle control)].
Peptide conjugates BT1-BT11 were tested at three concentrations: 3.6 μM, 10.8 μM, 32.5 μM in triplicate wells. peptide conjugates were dissolved in DMSO and serially diluted in assay buffer. The highest concentration that can be tested in this assay was 32.5 μM peptide conjugate (1% DMSO).
Peptides LD12 (SEQ ID NO:9), LD10 (SEQ ID NO:1), and LD16 (SEQ ID NO:10) were tested at three concentrations: 11 μM, 33 μM, 100 μM in triplicate. LD peptides were dissolved in water and serially diluted in assay buffer. RLUs were measured at the end of the assay, and % Inhibition (% Efficiency) was calculated using the formula above.
Background: Reporter assays use an easily measured gene product as a stand-in for the process of interest.

The target in data set [3] is T2, interaction between LAG3 and MHC-II (Homo sapiens, UniProt P18627).
T2 construct: purchased Cisbio US Inc
T2 sequence (P18627 23-450 limits assumed): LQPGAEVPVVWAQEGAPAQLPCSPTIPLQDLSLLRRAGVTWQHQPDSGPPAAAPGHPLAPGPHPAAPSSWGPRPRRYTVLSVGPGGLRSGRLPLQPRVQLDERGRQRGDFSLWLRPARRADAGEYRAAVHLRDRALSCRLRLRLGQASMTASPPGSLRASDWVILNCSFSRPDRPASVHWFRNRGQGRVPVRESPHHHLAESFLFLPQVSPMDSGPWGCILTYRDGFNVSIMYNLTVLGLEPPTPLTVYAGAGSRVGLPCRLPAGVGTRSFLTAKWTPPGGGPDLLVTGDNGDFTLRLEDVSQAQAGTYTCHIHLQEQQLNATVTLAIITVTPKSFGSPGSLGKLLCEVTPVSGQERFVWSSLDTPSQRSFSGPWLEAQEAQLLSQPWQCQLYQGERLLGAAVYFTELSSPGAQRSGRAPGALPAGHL
Nature of the data set: HTRF (TR-FRET) LAG3/MHC-II binding assay. The note with it: for response in dilution curve (HTRF signal): 10-fold dilutions starting at 100 μM or 10 μM, FIGS. 2A-9B; for effect on HTRF signal: tested at 100 μM, 10 μM, and 1 μM, FIG. 1. From the text:
A Homogeneous Time-resolved Fluorescence (HTRF) LAG3/MHC-II binding assay (Cisbio US Inc.) was used to measure the interaction between MHC-II and LAG3 in the presence of various peptides and peptide conjugates. In this assay, the interaction between Tag1-LAG3 and Tag2-MHC-II is detected by using anti-Tag1-Terbium (HTRF donor) and anti-Tag2-XL665 (HTRF acceptor). When the donor and acceptor antibodies are brought into close proximity due to LAG3 and MHC-II binding, excitation of the donor antibody triggers fluorescent resonance energy transfer (FRET) towards the acceptor antibody, which in turn emits specifically at 665 nm. This specific signal is directly proportional to the extent of LAG3/MHC-II interaction. Thus, an agent that blocks the interaction between LAG3 and MHC-II will cause a reduction in HTRF ratio.
Each of peptide conjugates BT1, BT2, BT3, BT4, BT5, BT6, BT7, BT8, BT9, and peptides LG11 (LAG3-11), LAG3-56 (SEQ ID NO:5), and LAG3-42 (SEQ ID NO:6) was tested at 3 concentrations: 100 μM, 10 μM, and 1 μM. The dashed-lines represent the HTRF ratio readout of a control ovalbumin peptide (OVA, SEQ ID NO:7) (baseline) at the respective concentrations.
peptide conjugates and LG peptides were tested in full dilution curves in the LAG3:MHCII TR-FRET Assay described above to estimate IC50. peptide conjugates were tested starting at 100 μM or 10 μM. LG peptides were tested starting at 100 μM.
(In general: Time-resolved FRET reads energy transfer from a long-lived donor to a nearby acceptor.)

Non-standard residues stand in square brackets, D forms with d. Residues, ends and D or L forms follow the SMILES beside them. PEG4 = NCCOCCOCCOCCOCCC(=O)O

Regarding `CC[C@H](C)[C@H](NC(=O)[C@H](CCC(N)=O)NC(=O)CNC(=O)[C@@H](NC(=O)[C@@H](CO)NC(=O)CCOCCOCCOCCOCCNC(=O)[C@H](Cc1c[nH]c2ccccc12)NC(=O)[C@H](CCC(=O)O)NC(=O)CNC(=O)[C@@H](NC(=O)CNC(=O)[C@H](CCC(N)=O)NC(=O)[C@H](Cc1c[nH]c2ccccc12)NC(=O)[C@H](Cc1c[nH]c2ccccc12)NC(=O)[C@H](CC(=O)O)NC(=O)[C@H](CCC(=O)O)NC(=O)[C@@H]1CCCN1C(=O)[C@H](Cc1c[nH]c2ccccc12)NC(=O)[C@H](Cc1c[nH]cn1)NC(=O)[C@H](CC(C)C)NC(=O)[C@@H]1CCCN1C(=O)[C@H](CCC(=O)O)NC(=O)[C@H](Cc1c[nH]c2ccccc12)NC(=O)[C@@H]1CCCN1C(=O)[C@H](C)NC(=O)[C@@H](N)CO)[C@@H](C)O)[C@@H](C)O)C(=O)N[C@@H](CO)C(=O)N[C@H](C(=O)N[C@@H](CC(C)C)C(=O)N[C@@H](CCCNC(=N)N)C(=O)N[C@H](C(=O)N[C@@H](CC(N)=O)C(=O)N[C@H](C(=O)N[C@H](C(=O)N[C@@H](C)C(=O)N1CCC[C@H]1C(=O)N[C@@H](CC(C)C)C(=O)N[C@@H](CO)C(=O)N[C@@H](CCC(N)=O)C(N)=O)[C@@H](C)O)[C@@H](C)CC)C(C)C)[C@@H](C)O` [BT2], the “precipitation in assay buffer” value in data set [1] was “precipitation occurred at 100 μM”. In data set [2], the “inhibition of PD1 activity (percent inhibition of light signal)” value is “did not show inhibition at any of the tested concentrations”. In data set [3], the “response in dilution curve (HTRF signal)” value was “reduced the HTRF signal at 10 μM” and the “effect on HTRF signal” value is “reduced the HTRF signal”. Moreover, the IC50 (commonly the midpoint of a concentration-inhibition curve) in data set [3] (LAG3:MHCII TR-FRET full dilution curves) came to 8.44 µM.
As for `CC[C@H](C)[C@H](NC(=O)[C@H](CO)NC(=O)[C@@H](NC(=O)[C@H](CC(C)C)NC(=O)[C@H](CCCNC(=N)N)NC(=O)[C@@H](NC(=O)[C@H](CC(N)=O)NC(=O)[C@@H](NC(=O)[C@@H](NC(=O)[C@H](C)NC(=O)[C@@H]1CCCN1C(=O)[C@H](CC(C)C)NC(=O)[C@H](CO)NC(=O)[C@H](CCC(N)=O)NC(=O)CCOCCOCCOCCOCCNC(=O)[C@H](Cc1c[nH]c2ccccc12)NC(=O)[C@H](CCC(=O)O)NC(=O)CNC(=O)[C@@H](NC(=O)CNC(=O)[C@H](CCC(N)=O)NC(=O)[C@H](Cc1c[nH]c2ccccc12)NC(=O)[C@H](Cc1c[nH]c2ccccc12)NC(=O)[C@H](CC(=O)O)NC(=O)[C@H](CCC(=O)O)NC(=O)[C@@H]1CCCN1C(=O)[C@H](Cc1c[nH]c2ccccc12)NC(=O)[C@H](Cc1c[nH]cn1)NC(=O)[C@H](CC(C)C)NC(=O)[C@@H]1CCCN1C(=O)[C@H](CCC(=O)O)NC(=O)[C@H](Cc1c[nH]c2ccccc12)NC(=O)[C@@H]1CCCN1C(=O)[C@H](C)NC(=O)[C@@H](N)CO)[C@@H](C)O)[C@@H](C)O)[C@@H](C)CC)C(C)C)[C@@H](C)O)C(=O)N[C@@H](CCC(N)=O)C(=O)NCC(=O)N[C@H](C(=O)N[C@H](CO)C(N)=O)[C@@H](C)O` [BT4] (H-SAPWEPLHWPEDWWQGTGEW[PEG4]QSLPATINVRLTSIQGT[dS]-NH2), in data set [1], the “precipitation in assay buffer” value was “precipitation occurred at 100 μM”. Besides, the “inhibition of PD1 activity (percent inhibition of light signal)” value in data set [2] is on record as “did not show inhibition at any of the tested concentrations”. For the same molecule, in data set [3], the “response in dilution curve (HTRF signal)” value is given as “reduced the HTRF signal at 10 μM” and the “effect on HTRF signal” value is recorded as “reduced the HTRF signal”.
On the same counts, the results for `CC[C@H](C)[C@H](NC(=O)[C@H](CO)NC(=O)[C@@H](NC(=O)[C@H](CC(C)C)NC(=O)[C@H](CCCNC(=N)N)NC(=O)[C@@H](NC(=O)[C@H](CC(N)=O)NC(=O)[C@@H](NC(=O)[C@@H](NC(=O)[C@H](C)NC(=O)[C@@H]1CCCN1C(=O)[C@H](CC(C)C)NC(=O)[C@H](CO)NC(=O)[C@H](CCC(N)=O)NC(=O)CCOCCOCCOCCOCCNC(=O)[C@H](CO)NC(=O)[C@H](C)NC(=O)[C@@H]1CCCN1C(=O)[C@H](Cc1c[nH]c2ccccc12)NC(=O)[C@H](CCC(=O)O)NC(=O)[C@@H]1CCCN1C(=O)[C@H](CC(C)C)NC(=O)[C@H](Cc1c[nH]cn1)NC(=O)[C@H](Cc1c[nH]c2ccccc12)NC(=O)[C@@H]1CCCN1C(=O)[C@H](CCC(=O)O)NC(=O)[C@H](CC(=O)O)NC(=O)[C@H](Cc1c[nH]c2ccccc12)NC(=O)[C@H](Cc1c[nH]c2ccccc12)NC(=O)[C@H](CCC(N)=O)NC(=O)CNC(=O)[C@@H](NC(=O)CNC(=O)[C@H](CCC(=O)O)NC(=O)[C@@H](N)Cc1c[nH]c2ccccc12)[C@@H](C)O)[C@@H](C)O)[C@@H](C)CC)C(C)C)[C@@H](C)O)C(=O)N[C@@H](CCC(N)=O)C(=O)NCC(=O)N[C@H](C(=O)N[C@H](CO)C(N)=O)[C@@H](C)O` [BT5] (H-WEGTGQWWDEPWHLPEWPAS[PEG4]QSLPATINVRLTSIQGT[dS]-NH2) are “precipitation occurred at 100 μM”, “did not show inhibition at any of the tested concentrations”, “reduced the HTRF signal at 10 μM” and “reduced the HTRF signal”.
For “H2N-(dS)TGQISTLRVNITAPLSQ^1-PEG4-SAPWEPLHWPEDWWQGTGEW^3-amide [BT1]”, in that order: “precipitation occurred at 100 μM”, “did not show inhibition at any of the tested concentrations”, “reduced the HTRF signal at 10 μM” and “reduced the HTRF signal”.
